These results are taken from patent US20240382483A1, “HETEROCYCLIC EGFR INHIBITORS FOR USE IN THE TREATMENT OF CANCER” (Blueprint Medicines Corporation, priority 2021, published 2024).

Test [1] has as its target T1, intracellular phosphorylation of EGFR in NCI-H1975 cell line that harbors the EGFR L858R T790M mutations (Homo sapiens, UniProt P00533, L858R/T790M).
T1 construct: NCI-H1975 cell line that harbors the EGFR L858R T790M mutations (ATCC, CRL-5908); host or cells: NCI-H1975
Description: NCI-H1975 pEGFR AlphaLISA assay. It is filed as cell-based. The conditions noted are these: NCI-H1975 cells (EGFR L858R T790M), p-EGFR (Tyr1068), 4-5 hours incubation; read-out: Ext pEGFR H1975 GMean IC50 (nM) Protocol: @Pharmaron AlphaLISA (Num). The protocol:
On the next day, the test compounds and DMSO control were added into H1975 cell plate followed by incubation at 37C/5% CO2 for 4-5 hours. […] Then 5 μL of a donor bead mix was added to each well followed by overnight incubation at room temperature in dark. On the next day, the plate was read at a compatible plate reader to obtain pEGFR signal. Percent of pEGFR inhibition was plotted against log concentration of compounds to generate IC50 values.

The target of test [2] is T2, EGFR (L858R T790M C797S) (Homo sapiens, UniProt P00533, C797S/L858R/T790M).
T2 construct: purchased SignalChem E10-122VG
Description: Biochemical EGFR inhibition assay (Caliper mobility shift), EGFR LRTMCS. The conditions noted are these: LRTMCS (PH) IC50 (nM) @ 1 mM ATP (Num), EGFR LRTMCS mutant. The gist of the method: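 Apparent IC50s were derived by plotting percent activity against the log of compound concentration. Activity was measured as phosphopeptide electrophoretically separated from substrate, after reactions at room temperature reached 10% to 20% phosphorylation and were halted with 35 mM EDTA.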

Test [3] deals with EGFR mutant NSCLC (EGFR M+). The conditions noted are these: NSCLC patients; cited from earlier work.

Structures can show the parent of a compound that is named as a salt.

T1 sequence (P00533 25-1210 T790M/L858R): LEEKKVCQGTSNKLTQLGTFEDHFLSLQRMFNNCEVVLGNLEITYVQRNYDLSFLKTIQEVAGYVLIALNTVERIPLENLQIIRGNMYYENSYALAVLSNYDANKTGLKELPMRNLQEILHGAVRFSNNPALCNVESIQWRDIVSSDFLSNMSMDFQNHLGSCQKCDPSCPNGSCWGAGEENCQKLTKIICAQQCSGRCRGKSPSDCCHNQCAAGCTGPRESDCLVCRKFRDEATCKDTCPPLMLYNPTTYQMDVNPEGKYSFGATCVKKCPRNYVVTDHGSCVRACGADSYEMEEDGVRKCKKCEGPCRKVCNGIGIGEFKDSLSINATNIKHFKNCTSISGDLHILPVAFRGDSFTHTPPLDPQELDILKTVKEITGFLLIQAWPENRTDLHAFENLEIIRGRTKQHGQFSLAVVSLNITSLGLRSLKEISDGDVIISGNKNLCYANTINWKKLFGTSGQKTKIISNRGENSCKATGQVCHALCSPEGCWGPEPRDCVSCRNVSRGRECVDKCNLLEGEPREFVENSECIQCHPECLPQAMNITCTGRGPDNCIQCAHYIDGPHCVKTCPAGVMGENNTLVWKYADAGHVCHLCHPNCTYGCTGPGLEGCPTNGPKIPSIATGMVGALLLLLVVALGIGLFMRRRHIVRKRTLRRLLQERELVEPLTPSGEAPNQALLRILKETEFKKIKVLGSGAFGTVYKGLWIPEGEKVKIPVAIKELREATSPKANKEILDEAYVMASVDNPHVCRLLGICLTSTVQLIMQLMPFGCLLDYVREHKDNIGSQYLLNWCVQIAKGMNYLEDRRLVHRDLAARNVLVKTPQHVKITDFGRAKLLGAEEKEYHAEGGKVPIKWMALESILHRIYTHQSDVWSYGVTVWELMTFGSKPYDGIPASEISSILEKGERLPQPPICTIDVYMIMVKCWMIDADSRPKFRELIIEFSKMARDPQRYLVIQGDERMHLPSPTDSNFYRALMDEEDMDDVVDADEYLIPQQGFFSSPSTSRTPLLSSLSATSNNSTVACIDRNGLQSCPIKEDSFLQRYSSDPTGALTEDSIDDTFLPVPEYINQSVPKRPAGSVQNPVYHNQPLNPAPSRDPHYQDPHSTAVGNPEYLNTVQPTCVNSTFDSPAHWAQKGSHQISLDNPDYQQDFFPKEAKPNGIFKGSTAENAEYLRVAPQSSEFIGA
T2 sequence (P00533 25-1210 T790M/C797S/L858R): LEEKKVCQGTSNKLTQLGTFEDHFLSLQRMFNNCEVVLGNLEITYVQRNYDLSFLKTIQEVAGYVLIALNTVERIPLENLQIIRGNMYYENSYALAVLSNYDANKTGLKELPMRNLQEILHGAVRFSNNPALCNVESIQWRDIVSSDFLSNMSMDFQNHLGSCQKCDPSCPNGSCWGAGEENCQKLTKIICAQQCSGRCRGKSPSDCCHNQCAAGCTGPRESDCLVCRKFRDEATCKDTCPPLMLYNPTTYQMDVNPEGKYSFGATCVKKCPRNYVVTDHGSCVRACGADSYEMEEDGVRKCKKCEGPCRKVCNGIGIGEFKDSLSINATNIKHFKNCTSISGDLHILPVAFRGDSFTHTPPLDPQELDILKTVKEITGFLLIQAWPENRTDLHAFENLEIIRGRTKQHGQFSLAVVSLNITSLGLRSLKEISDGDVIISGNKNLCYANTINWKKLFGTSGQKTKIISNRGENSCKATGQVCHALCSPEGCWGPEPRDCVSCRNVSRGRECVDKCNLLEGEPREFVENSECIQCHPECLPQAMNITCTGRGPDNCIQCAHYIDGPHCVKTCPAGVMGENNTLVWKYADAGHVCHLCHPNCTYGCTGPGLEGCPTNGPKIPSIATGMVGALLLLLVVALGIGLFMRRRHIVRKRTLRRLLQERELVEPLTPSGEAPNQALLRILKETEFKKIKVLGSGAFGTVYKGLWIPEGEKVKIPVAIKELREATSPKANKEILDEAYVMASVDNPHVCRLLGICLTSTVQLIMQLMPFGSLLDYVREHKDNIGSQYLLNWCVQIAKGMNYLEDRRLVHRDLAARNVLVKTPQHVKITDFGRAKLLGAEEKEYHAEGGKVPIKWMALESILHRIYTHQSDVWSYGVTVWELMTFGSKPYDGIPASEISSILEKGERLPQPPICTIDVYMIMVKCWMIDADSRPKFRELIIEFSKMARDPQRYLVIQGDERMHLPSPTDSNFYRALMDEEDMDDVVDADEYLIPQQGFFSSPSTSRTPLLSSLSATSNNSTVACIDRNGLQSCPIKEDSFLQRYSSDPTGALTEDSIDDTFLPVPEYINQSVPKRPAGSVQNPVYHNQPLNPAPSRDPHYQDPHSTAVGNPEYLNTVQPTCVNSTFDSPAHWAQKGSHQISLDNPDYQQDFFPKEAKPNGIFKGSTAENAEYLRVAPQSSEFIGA

`CNC[C@@H]1CCN1c1ncc(C(C)C)c2cc(Nc3ccnc(N4CC[C@H](OC)[C@H](F)C4)n3)ncc12` [Example 164, N-(2-((3R,4S)-3-fluoro-4-methoxypiperidin-1-yl)pyrimidin-4-yl)-5-isopropyl-8-((S)-2-((methylamino)methyl)azetidin-1-yl)-2,7-naphthyridin-3-amine]: the figures for the IC50 in test [1] and in test [2] were 30 to 50 nM and under 15 nM, respectively. On the same counts, the results for `CO[C@H]1CCN(c2nccc(Nc3cc4c(C(C)C)cnc(N5CC[C@H]5CN)c4cn3)n2)C[C@H]1F` [Example 165, 8-((S)-2-(aminomethyl)azetidin-1-yl)-N-(2-((3R,4S)-3-fluoro-4-methoxypiperidin-1-yl)pyrimidin-4-yl)-5-isopropyl-2,7-naphthyridin-3-amine] are 20 to 30 nM and under 15 nM. On the same counts, the results for `CC(C)c1cnc(N2CCC23CNC3)c2cnc(Nc3ccnc(N4CC[C@@H](O)[C@@](C)(F)C4)n3)cc12` [Example 190, (3S,4R)-3-fluoro-1-(4-((5-isopropyl-8-(1,6-diazaspiro[3.3]heptan-1-yl)-2,7-naphthyridin-3-yl)amino)pyrimidin-2-yl)-3-methylpiperidin-4-ol] are over 50 nM and under 15 nM. On the same counts, the results for `CC(C)c1cnc(N2CCC23CN(C)C3)c2cnc(Nc3ccnc(N4CC[C@@H](O)[C@@](C)(F)C4)n3)cc12` [Example 192, (3S,4R)-3-fluoro-1-(4-((5-isopropyl-8-(6-methyl-1,6-diazaspiro[3.3]heptan-1-yl)-2,7-naphthyridin-3-yl)amino)pyrimidin-2-yl)-3-methylpiperidin-4-ol trifluoroacetate] are 30 to 50 nM and under 15 nM. For the molecule `CC(C)c1cnc(N2CCC23CN(C(C)C)C3)c2cnc(Nc3ccnc(N4CC[C@@H](O)[C@@](C)(F)C4)n3)cc12` [Example 193, (3S,4R)-3-fluoro-1-(4-((5-isopropyl-8-(6-isopropyl-1,6-diazaspiro[3.3]heptan-1-yl)-2,7-naphthyridin-3-yl)amino)pyrimidin-2-yl)-3-methylpiperidin-4-ol], the IC50 in test [1] was 20 to 30 nM; in test [2] it was under 15 nM. On the same counts, the results for `CC(C)c1ncc(N2CCC23CN(C)C3)c2cnc(Nc3ccnc(N4CC[C@@H](O)[C@@](C)(F)C4)n3)cc12` [Example 195, (3S,4R)-3-fluoro-1-(4-((5-isopropyl-8-(6-methyl-1,6-diazaspiro[3.3]heptan-1-yl)-2,6-naphthyridin-3-yl)amino)pyrimidin-2-yl)-3-methylpiperidin-4-ol] are 30 to 50 nM and 20 to 30 nM. On the same counts, the results for `CC(C)c1cnc(N2CCC23CCN(C)CC3)c2cnc(Nc3ccnc(N4CC[C@@H](O)[C@@](C)(F)C4)n3)cc12` [Example 196, (3S,4R)-3-fluoro-1-(4-((5-isopropyl-8-(7-methyl-1,7-diazaspiro[3.5]nonan-1-yl)-2,7-naphthyridin-3-yl)amino)pyrimidin-2-yl)-3-methylpiperidin-4-ol] are 10 to 20 nM and under 15 nM.

Turning to `CNC[C@@H]1CCCN1c1ncc(C(C)C)c2cc(Nc3ccnc(N4CC[C@@H](O)[C@@](C)(F)C4)n3)ncc12` [Example 197, (3S,4R)-3-fluoro-1-(4-((5-isopropyl-8-((S)-2-((methylamino)methyl)pyrrolidin-1-yl)-2,7-naphthyridin-3-yl)amino)pyrimidin-2-yl)-3-methylpiperidin-4-ol], the IC50 in test [1] is 30 to 50 nM; in test [2], under 15 nM.

On to `CNCCO[C@H]1CCN(c2nccc(Nc3cc4c(C(C)C)cnc(N5CC[C@H]5C)c4cn3)n2)C[C@H]1F` [Example 200, N-(2-((3R,4S)-3-fluoro-4-(2-(methylamino)ethoxy)piperidin-1-yl)pyrimidin-4-yl)-5-isopropyl-8-((R)-2-methylazetidin-1-yl)-2,7-naphthyridin-3-amine], for which the values for the IC50 in test [1] and in test [2] were under 10 nM and under 15 nM, respectively. On the same counts, the results for `CNCCO[C@@H]1CCN(c2nccc(Nc3cc4c(C(C)C)cnc(N5CC[C@H]5C)c4cn3)n2)C[C@@H]1F` [Example 201, N-(2-((3S,4R)-3-fluoro-4-(2-(methylamino)ethoxy)piperidin-1-yl)pyrimidin-4-yl)-5-isopropyl-8-((R)-2-methylazetidin-1-yl)-2,7-naphthyridin-3-amine] are 10 to 20 nM and under 15 nM. For `CC(C)c1cnc(N2CC[C@H]2C)c2cnc(Nc3ccnc(N4CC[C@H](OCCN(C)C)[C@H](F)C4)n3)cc12` [Example 202, N-(2-((3R,4S)-4-(2-(dimethylamino)ethoxy)-3-fluoropiperidin-1-yl)pyrimidin-4-yl)-5-isopropyl-8-((R)-2-methylazetidin-1-yl)-2,7-naphthyridin-3-amine], the IC50 lay within 30 to 50 nM in test [1] and 30 to 100 nM in test [2]. In the same order, the values of `CC(C)c1cnc(N2CC[C@H]2C)c2cnc(Nc3ccnc(N4CC[C@@H](OCCN(C)C)[C@@H](F)C4)n3)cc12` [Example 203, N-(2-((3S,4R)-4-(2-(dimethylamino)ethoxy)-3-fluoropiperidin-1-yl)pyrimidin-4-yl)-5-isopropyl-8-((R)-2-methylazetidin-1-yl)-2,7-naphthyridin-3-amine] are 30 to 50 nM and under 15 nM. On the same counts, the results for `CC(C)c1cnc(N2CC(n3ccnc3)C2)c2cnc(Nc3ccnc(N4CC[C@@H](O)[C@@](C)(F)C4)n3)cc12` [Example 219, (3S,4R)-1-(4-((8-(3-(1H-imidazol-1-yl)azetidin-1-yl)-5-isopropyl-2,7-naphthyridin-3-yl)amino)pyrimidin-2-yl)-3-fluoro-3-methylpiperidin-4-ol] are over 50 nM and 20 to 30 nM.

For `C=CC(=O)Nc1cc(Nc2nccc(-c3cn(C)c4ccccc34)n2)c(OC)cc1N(C)CCN(C)C` [osimertinib], in test [3], the “time of treatment until resistance” value was “approximately 10 months”.
